Reference: ChEMBL document CHEMBL3044995, “Synthesis of allylic trifluoromethyl ketones and their activity as inhibitors of the sex pheromone of the leopard moth, Zeuzera pyrina L. (Lepidoptera: Cossidae)” (Pest Manag Sci, 2011)
≈ marks a conversion by molar mass, not a printed value. Calls of active or inactive are those of the source. No cut-off for these calls is given here.

Columns and labels:
[1] = tested on: Daphnia; experiment: Toxicity in Daphnia assessed as survial; assay type: organism-based
[2] = Toxicity in Swiss Mus musculus (mouse) measured after 6 days; assay type: organism-based; details: in vivo
[3] = tested on: Zeuzera pyrina; experiment: Inhibition of electroantennogram response of Zeuzera pyrina males to sex pheromone at 0.1 ug/antenna topical application by electrophysiology; assay type: functional, organism-based
[4] = tested on: Zeuzera pyrina; experiment: Inhibition of electroantennogram response of Zeuzera pyrina males to sex pheromone at =>0.05 ug/antenna topical application by electrophysiology; assay type: functional, organism-based
[5] = tested on: Zeuzera pyrina; experiment: Inhibition of electroantennogram response of Zeuzera pyrina males to sex pheromone at 1 ug/antenna topical application by electrophysiology; assay type: functional
[6] = tested on: Zeuzera pyrina; experiment: Inhibition of electroantennogram response of Zeuzera pyrina males to sex pheromone at 0.5 ug/antenna topical application by electrophysiology; assay type: functional, organism-based
[7] = tested on: Zeuzera pyrina; experiment: Effect on response of Zeuzera pyrina males to the calling female assessed as complete upwind fligts up to 10 ug by Wind tunnel assay; assay type: functional
[8] = tested on: Zeuzera pyrina; experiment: Effect on response of Zeuzera pyrina males to the calling female assessed as flight towords source up to 10 ug by Wind tunnel assay; assay type: functional
[9] = tested on: Zeuzera pyrina; experiment: Effect on response of Zeuzera pyrina males to the calling female assessed as contact to female up to 10 ug by Wind tunnel assay; assay type: functional
[10] = tested on: Zeuzera pyrina; experiment: Effect on response of Zeuzera pyrina males to the calling female assessed as male took off up to 10 ug by Wind tunnel assay; assay type: functional

CCCC/C=C\CCCCCCCCCCC(=O)C(F)(F)F
EC50 [1]: 0.07 µg/mL (≈ 0.218 µM)
LD50 at 144 h [2]: 1000 mg/kg

CCCC/C=C\CCCCCCCCC/C=C/CC(=O)C(F)(F)F
Activity [3]: Active
inhibition [4]: Active
inhibition (INH) [5]: >80%
inhibition [6]: Active

CCCCCCCCSCC(=O)C(F)(F)F
LD50 at 144 h [2]: 1000 mg/kg

CCCC/C=C\CCCCCCCC/C=C/CCC(=O)C(F)(F)F
Activity [3]: Active
Activity [7]: 55%
Activity [8]: 62%
Activity [9]: 55%
inhibition (INH) [5]: >80%
Activity [10]: 95%
